In US11357779B2 (G1 Therapeutics, Inc., priority 2018, dated 2022):
Read-outs that look alike come from different tables or passages of the source.

Assay: Plasma concentration versus time of Compound I and metabolite Compound III in patients dosed QD or BID with Form B of Compound II plus fulvestrant
Type: in vivo, human
Details: human, plasma, oral
From the text: Patients were enrolled into 1 of 2 parallel, independently operating, dose-escalation dosing cohorts with Form B of Compound II administered continuously either once daily (QD) or twice daily (BID) with food with fixed-dose fulvestrant (intramuscularly every 14 days for the first three injections and then every 28 days). Pre- or perimenopausal patients also received goserelin for the duration of study treatment. A […] agonist was started at least 28 days before the first dose of Form B, and those patients who were taking another LHRH agonist were switched to goserelin on Day 1. Patients were split into […] cohorts providing once a day (QD) dosing of 200 mg, 300 mg, 400 mg, 500 mg, or 650 mg of Form B, or twice a day (BID) dosing of 100 mg, 150 mg, or 200 mg of Form B. The second dose in BID cohorts was not administered in the evening until at least 12 hours after the initial morning dose of Form B. The dosing cohorts for Form B of Compound II are provided in Table 1.
Blood samples were collected at the following time points relative to the morning dose of Form B at Day 1 and at Day 29: pre-dose (0 hour) and 1, 2, 3, 4, 6, 8, 10, 12 (prior to the evening dose in the BID cohorts), and 24 (prior to the next day's morning dose) hours after dosing. A 5-minute time window was allowed for samples collected between the predose and 3 hours after Form B dosing. A 15-minute window was allowed for samples collected between 4 to 12 hours after Form B dosing. A 1-hour window was allowed for the sample collected 24 hours after Form B dosing. Blood samples for Compound I PK trough levels were collected pre-dose at Day 8, Day 15, and Day 22 prior to the morning administration of Compound I. Plasma concentrations of Compound I and its metabolite, Compound III, were measured using validated methods.
Analysis of plasma concentration versus time data for calculation of standard pharmacokinetic (PK) parameters following oral administration was conducted using Phoenix WinNonlin version 6.3 using actual blood sampling times.

Compound: CC(C)N1CCN(c2ccc(Nc3ncc4cc5n(c4n3)C3(CCCCC3)CNC5=O)nc2)CC1 [Compound I, 2′-((5-(4-isopropylpiperazin-1-yl)pyridin-2-yl)amino)-7′,8′-dihydro-6′H-spiro[cyclohexane-1,9′-pyrazino[1′,2′:1,5]pyrrolo[2,3-d]pyrimidin]-6′-one]
- concentration at 3 h (200 mg, 200 mg QD of Form B, Day 29, 3.0 h, Median, read-out: Compound I Concentration): 11.8 ng/mL
- concentration at 4 h (200 mg, 200 mg QD of Form B, Day 29, 4.0 h, Mean, read-out: Compound I Concentration): 17.5 ng/mL
- concentration at 4 h (200 mg, 200 mg QD of Form B, Day 29, 4.0 h, Median, read-out: Compound I Concentration): 18.8 ng/mL
- concentration at 6 h (200 mg, 200 mg QD of Form B, Day 29, 6.0 h, Mean, read-out: Compound I Concentration): 18.5 ng/mL
- concentration at 6 h (200 mg, 200 mg QD of Form B, Day 29, 6.0 h, Median, read-out: Compound I Concentration): 17.9 ng/mL
- concentration at 8 h (200 mg, 200 mg QD of Form B, Day 29, 8.0 h, Mean, read-out: Compound I Concentration): 14.6 ng/mL
- concentration at 8 h (200 mg, 200 mg QD of Form B, Day 29, 8.0 h, Median, read-out: Compound I Concentration): 12.1 ng/mL
- concentration at 10 h (200 mg, 200 mg QD of Form B, Day 29, 10.0 h, Mean, read-out: Compound I Concentration): 11.1 ng/mL
- concentration at 10 h (200 mg, 200 mg QD of Form B, Day 29, 10.0 h, Median, read-out: Compound I Concentration): 8.7 ng/mL
- concentration at 12 h (200 mg, 200 mg QD of Form B, Day 29, 12.0 h, Mean, read-out: Compound I Concentration): 8.46 ng/mL
- concentration at 12 h (200 mg, 200 mg QD of Form B, Day 29, 12.0 h, Median, read-out: Compound I Concentration): 8.32 ng/mL
- concentration at 24 h (200 mg, 200 mg QD of Form B, Day 29, […], Mean, read-out: Compound I Concentration): 6.01 ng/mL
- concentration at 24 h (200 mg, 200 mg QD of Form B, Day 29, […], Median, read-out: Compound I Concentration): 4.9 ng/mL
- concentration at 0 h (200 mg, Cohort 8, 200 mg BID of Form B, Day 29, 0.0 h, read-out: Compound I Concentration, Mean): 9.74 ng/mL
- concentration at 0 h (200 mg, Cohort 8, 200 mg BID of Form B, Day 29, 0.0 h, read-out: Compound I Concentration, Min): 5.47 ng/mL
- concentration at 1 h (200 mg, Cohort 8, 200 mg BID of Form B, Day 29, 1.0 h, read-out: Compound I Concentration, Mean): 9.23 ng/mL
- concentration at 1 h (200 mg, Cohort 8, 200 mg BID of Form B, Day 29, 1.0 h, read-out: Compound I Concentration, Min): 5.1 ng/mL
- concentration at 2 h (200 mg, Cohort 8, 200 mg BID of Form B, Day 29, 2.0 h, read-out: Compound I Concentration, Mean): 12 ng/mL
- concentration at 2 h (200 mg, Cohort 8, 200 mg BID of Form B, Day 29, 2.0 h, read-out: Compound I Concentration, Min): 5.56 ng/mL
- concentration at 3 h (200 mg, Cohort 8, 200 mg BID of Form B, Day 29, 3.0 h, read-out: Compound I Concentration, Mean): 15.2 ng/mL
- concentration at 3 h (200 mg, Cohort 8, 200 mg BID of Form B, Day 29, 3.0 h, read-out: Compound I Concentration, Min): 7.49 ng/mL
- concentration at 4 h (200 mg, Cohort 8, 200 mg BID of Form B, Day 29, 4.0 h, read-out: Compound I Concentration, Mean): 21.1 ng/mL
- concentration at 4 h (200 mg, Cohort 8, 200 mg BID of Form B, Day 29, 4.0 h, read-out: Compound I Concentration, Min): 7.69 ng/mL
- concentration at 6 h (200 mg, Cohort 8, 200 mg BID of Form B, Day 29, 6.0 h, read-out: Compound I Concentration, Max): 28.1 ng/mL
- concentration at 6 h (200 mg, Cohort 8, 200 mg BID of Form B, Day 29, 6.0 h, read-out: Compound I Concentration, Mean): 19 ng/mL
- concentration at 6 h (200 mg, Cohort 8, 200 mg BID of Form B, Day 29, 6.0 h, read-out: Compound I Concentration, Min): 7.6 ng/mL
- concentration at 8 h (200 mg, Cohort 8, 200 mg BID of Form B, Day 29, 8.0 h, read-out: Compound I Concentration, Max): 21.7 ng/mL
- concentration at 8 h (200 mg, Cohort 8, 200 mg BID of Form B, Day 29, 8.0 h, read-out: Compound I Concentration, Mean): 14.6 ng/mL
- concentration at 8 h (200 mg, Cohort 8, 200 mg BID of Form B, Day 29, 8.0 h, read-out: Compound I Concentration, Min): 7.36 ng/mL
- concentration at 10 h (200 mg, Cohort 8, 200 mg BID of Form B, Day 29, 10.0 h, read-out: Compound I Concentration, Max): 38.6 ng/mL
- concentration at 10 h (200 mg, Cohort 8, 200 mg BID of Form B, Day 29, 10.0 h, read-out: Compound I Concentration, Mean): 18.6 ng/mL
- concentration at 10 h (200 mg, Cohort 8, 200 mg BID of Form B, Day 29, 10.0 h, read-out: Compound I Concentration, Min): 5.61 ng/mL
- concentration at 12 h (200 mg, Cohort 8, 200 mg BID of Form B, Day 29, 12.0 h, read-out: Compound I Concentration, Max): 40.8 ng/mL
- concentration at 12 h (200 mg, Cohort 8, 200 mg BID of Form B, Day 29, 12.0 h, read-out: Compound I Concentration, Mean): 19.8 ng/mL
- concentration at 12 h (200 mg, Cohort 8, 200 mg BID of Form B, Day 29, 12.0 h, read-out: Compound I Concentration, Min): 6.32 ng/mL
- concentration at 0 h (300 mg, 300 mg QD of Form B, Day 1, 0.0 h, Mean, read-out: Compound I Concentration): 0 ng/mL
- concentration at 0 h (300 mg, 300 mg QD of Form B, Day 1, 0.0 h, Median, read-out: Compound I Concentration): 0 ng/mL
- concentration at 1 h (300 mg, 300 mg QD of Form B, Day 1, 1.0 h, Mean, read-out: Compound I Concentration): 22.9 ng/mL
- concentration at 1 h (300 mg, 300 mg QD of Form B, Day 1, 1.0 h, Median, read-out: Compound I Concentration): 3.73 ng/mL
- concentration at 2 h (300 mg, 300 mg QD of Form B, Day 1, 2.0 h, Mean, read-out: Compound I Concentration): 16.9 ng/mL
- concentration at 2 h (300 mg, 300 mg QD of Form B, Day 1, 2.0 h, Median, read-out: Compound I Concentration): 5.96 ng/mL
- concentration at 3 h (300 mg, 300 mg QD of Form B, Day 1, 3.0 h, Mean, read-out: Compound I Concentration): 27.1 ng/mL
- concentration at 3 h (300 mg, 300 mg QD of Form B, Day 1, 3.0 h, Median, read-out: Compound I Concentration): 13.4 ng/mL
- concentration at 4 h (300 mg, 300 mg QD of Form B, Day 1, 4.0 h, Mean, read-out: Compound I Concentration): 32 ng/mL
- concentration at 4 h (300 mg, 300 mg QD of Form B, Day 1, 4.0 h, Median, read-out: Compound I Concentration): 19.8 ng/mL
- concentration at 6 h (300 mg, 300 mg QD of Form B, Day 1, 6.0 h, Mean, read-out: Compound I Concentration): 31.6 ng/mL
- concentration at 6 h (300 mg, 300 mg QD of Form B, Day 1, 6.0 h, Median, read-out: Compound I Concentration): 43.1 ng/mL
- concentration at 8 h (300 mg, 300 mg QD of Form B, Day 1, 8.0 h, Mean, read-out: Compound I Concentration): 22.7 ng/mL
- concentration at 8 h (300 mg, 300 mg QD of Form B, Day 1, 8.0 h, Median, read-out: Compound I Concentration): 28.1 ng/mL
- concentration at 10 h (300 mg, 300 mg QD of Form B, Day 1, 10.0 h, Mean, read-out: Compound I Concentration): 19.9 ng/mL
- concentration at 10 h (300 mg, 300 mg QD of Form B, Day 1, 10.0 h, Median, read-out: Compound I Concentration): 18.1 ng/mL
- concentration at 12 h (300 mg, 300 mg QD of Form B, Day 1, 12.0 h, Mean, read-out: Compound I Concentration): 15.5 ng/mL
- concentration at 12 h (300 mg, 300 mg QD of Form B, Day 1, 12.0 h, Median, read-out: Compound I Concentration): 13.5 ng/mL
- concentration at 24 h (300 mg, 300 mg QD of Form B, Day 1, […], Mean, read-out: Compound I Concentration): 8.09 ng/mL
- concentration at 24 h (300 mg, 300 mg QD of Form B, Day 1, […], Median, read-out: Compound I Concentration): 8.48 ng/mL
- concentration at 0 h (300 mg, 300 mg QD of Form B, Day 29, 0.0 h, Mean, read-out: Compound I Concentration): 13.9 ng/mL
- concentration at 0 h (300 mg, 300 mg QD of Form B, Day 29, 0.0 h, Median, read-out: Compound I Concentration): 8.24 ng/mL
- concentration at 1 h (300 mg, 300 mg QD of Form B, Day 29, 1.0 h, Mean, read-out: Compound I Concentration): 16.2 ng/mL
